Measured values as given in patent US20250109127A1, “METHODS OF USE OF PHENOXYPROPYLAMINE COMPOUNDS TO TREAT DEPRESSION” (Minerva Neurosciences, Inc., priority 2013, published 2025).
“And” between values parts separate entries of the source, which are not always exact repeats. Equal values may be shown once. Where a name gives a salt, the structure may show the parent alone.

System: 5-HIAA release in the rat prefrontal cortex
Test: Microdialysis: 5-HIAA release in prefrontal cortex after I.P. administration
Type: in vivo
Conditions: for 5-HIAA release, individual animals / 5-HIAA release, MEAN: 0.3 mg/kg I.P.; for 5-HIAA release, individual animals: one column per animal R#11,12,18,23,29,30,17,24, hydrochloride; for 5-HIAA release, MEAN / 5-HIAA release (% of basal levels) measured in dialysates, MEAN: n = 8; for levels of 5-HIAA compared to the citalopram treated group (significant): SON-117 0.1 mg/kg; for 5-HIAA release (% of basal levels) measured in dialysates, MEAN: SON-117 3 mg/kg IP
Method: The aim of the study was to evaluate, using microdialysis, the effects of an intraperitoneal (I.P.) administration in rats of three different doses of SON-117 on dopamine and its metabolites, serotonin and its metabolite (5-HIAA), and norepinephrine levels in prefrontal cortex.
Thirty-two adult male Wistar rats were used for the whole study (4 groups of eight animals planned for the study, Table 1).
Surgery was performed on rats weighing about 300 g at the beginning of the experiments. Rats were anaesthetized with Ketamine (50 mg/kg) & Xylazine (15 mg/kg) by intramuscular administration. The animals were placed in a stereotaxic apparatus in the flat-skull position at a constant setting of −3.3 mm between ear bars and the incisor bar. The animals were treated with a local anesthesic (xylocaine 1%, Astra Zeneca) and an analgesic (Temgesic, from Schering Plough, 0.05 mg/kg, s.c.). A rostrocaudal midline incision was made with a lancet to expose the dorsal skull surface. The “stereotaxic zero” was defined by the Bregma in accordance with Paxinos and Watson's atlas (1986). A hole was drilled in the skull with a drill and the meninges were pierced with a sterile needle to implant a CMA12 guide cannula which later received the dialysis probe.
Coordinates used for implanting guide cannula in prefrontal cortex from Bregma were anteroposterior 3.7 mm, mediolateral 0.8 mm, and dorsoventral −2 mm (top of the probe was at −5 mm). The guide cannula was fixed to the skull with two stainless steel screws (1.88 mm outside diameter) anchored. An application of dental cement was added. A plastic collar allowed each animal to be tethered to a Swivel assembly of the CMA 120 awake animal system. Following surgery, rats were kept in individual cages and allowed to recover for a minimum of 3-5 days before the experimentation. The rats were handled and put in plastic bowl for 10 min at least every day to habituate the animals to their new environment for the dialysis. An I.P. administration with saline was also performed every day.
Dialysis probes (CMA12/3 mm, membrane, 20 kD cut-off, Carnegie Medicine, Stockholm, Sweden), were carefully washed before inserting into the guide cannula. The wash was performed with the artificial cerebrospinal fluid (aCSF) medium (NaCl 147 mM, KCl 2.7 mM, CaCl2 1.2 mM, MgCl2 0.85 mM) at room temperature. The dialysis system was then equilibrated at 20° C. at a perfusion rate of 1 μl/min with a Carnegie pump (CMA100). All catheters (FEP tubing, internal volume of 1.2 μl/10 cm, and tubing adaptors) used for microdialysis were treated in the same conditions.
The probes duly prepared were inserted into the guide cannula and the CMA120 Swivel assembly secured to the animal using a plastic collar. Flow through the dialysis probe with aCSF was maintained at a rate of 1 μl/min during the whole experimentation. The first four fractions (corresponding to 2 hours) were discarded to avoid the effects of parenchymal disturbance and to ensure that an approximate steady-state level was reached. Fractions were then collected over a period of 8.5 h during which time the animals remained quiet. The dialysates were automatically collected with an autosampler (microfraction collector CMA 140, Carnegie Medicin) and stored at −80° C. until analysis. […] Perfusion was then maintained for 7 hours with aCSF. The dialysates (30 μl) were collected into 300 μl vials, transferred into dry ice and then kept frozen (−80° C.) until analysis. Frozen samples were shipped to a partner for analysis. At the end of the microdialysis study, a PBS with colored ink was perfused through the probe in order to visualize the dialyzed area.
Catecholamine assay: Concentrations of dopamine, DOPAC, HVA, 5-HIAA, 5-HT, and norepinephrin were determined for each sample by HPLC coupled with electrochemical detection.

## Cc1nnc(-c2cc3c(OC[C@@H](O)CN4CCC(c5ccc(Cl)c(Cl)c5)CC4)cccc3o2)o1 [SON-117, (S)-1-(4-(3,4-dichlorophenyl)piperidino)-3-(2-(5-methyl-1,3,4-oxadiazol-2-yl)benzo(b)furan-4-yloxy)-2-propanol hydrochloride]
T3 h 30-T4 h
  5-HIAA release, individual animals: 84.27 % of respective basal and 78.82 % of respective basal and 113.26 % of respective basal and 50.70 % of respective basal and 79.10 % of respective basal and 97.98 % of respective basal and 103.77 % of respective basal
T3 h-T3 h 30
  5-HIAA release, MEAN: 85.23 % of respective basal
  5-HIAA release, individual animals: 91.97 % of respective basal and 87.81 % of respective basal and 101.16 % of respective basal and 49.70 % of respective basal and 76.51 % of respective basal and 101.56 % of respective basal and 87.92 % of respective basal
T4 h 30-T5 h
  5-HIAA release, MEAN: 79.56 % of respective basal
  5-HIAA release, individual animals: 106.09 % of respective basal and 92.34 % of respective basal and 55.38 % of respective basal and 93.00 % of respective basal and 34.98 % of respective basal and 60.78 % of respective basal and 97.49 % of respective basal and 96.40 % of respective basal
T4 h-T4 h 30
  5-HIAA release, MEAN: 83.02 % of respective basal
  5-HIAA release, individual animals: 101.39 % of respective basal and 87.58 % of respective basal and 68.33 % of respective basal and 105.89 % of respective basal and 46.22 % of respective basal and 58.28 % of respective basal and 100.16 % of respective basal and 96.30 % of respective basal
T5 h 30-T6 h
  5-HIAA release, MEAN: 76.13 % of respective basal
  5-HIAA release, individual animals: 99.18 % of respective basal and 83.12 % of respective basal and 47.00 % of respective basal and 91.59 % of respective basal and 31.98 % of respective basal and 58.90 % of respective basal and 95.96 % of respective basal and 101.31 % of respective basal
T5 h-T5 h 30
  5-HIAA release, MEAN: 70.00 % of respective basal
  5-HIAA release, individual animals: 36.17 % of respective basal and 102.81 % of respective basal and 51.02 % of respective basal and 88.56 % of respective basal and 33.58 % of respective basal and 69.56 % of respective basal and 91.58 % of respective basal and 86.71 % of respective basal
T6 h 30-T7 h
  5-HIAA release, MEAN: 77.53 % of respective basal
  5-HIAA release, individual animals: 93.10 % of respective basal and 92.17 % of respective basal and 48.56 % of respective basal and 102.17 % of respective basal and 26.99 % of respective basal and 69.28 % of respective basal
T6 h-T6 h 30
  5-HIAA release, MEAN: 75.56 % of respective basal
  5-HIAA release, individual animals: 95.37 % of respective basal and 79.54 % of respective basal and 45.32 % of respective basal and 101.94 % of respective basal and 31.32 % of respective basal and 69.73 % of respective basal and 87.93 % of respective basal and 93.33 % of respective basal
T-30 min-T0 (before administration)
  5-HIAA release, MEAN: 101.34 % of respective basal
T-1 h 30-T-1 h (before administration)
  5-HIAA release, MEAN: 96.20 % of respective basal
T-1 h-T-30 min (before administration)
  5-HIAA release, MEAN: 102.47 % of respective basal
SON-117 0.1 mg/kg I.P.
  5-HIAA dialysate levels vs mean pre-administration value: no statistically significant differences
At 0.5 h
  levels of 5-HIAA compared to the citalopram treated group (significant): lower
At 4.5 h, 5 h, 6.5 h
  levels of 5-HIAA compared to the citalopram treated group (significant): higher
SON-117 0.3 mg/kg IP, at 3.5 h and from 4.5 h to 7 h
  5-HIAA concentrations in prefrontal cortex, change: significant and stable slight decrease
SON-117 0.3 mg/kg, in function of time
  5-HIAA, difference to the citalopram group: no significant difference
T0-T30 min
  5-HIAA release (% of basal levels) measured in dialysates, MEAN: 100.01 % of basal levels
T30-T1 h
  5-HIAA release (% of basal levels) measured in dialysates, MEAN: 103.84 % of basal levels
